Assay results as given in patent US11883526B2 (priority 2019, dated 2024).
Where two headings read alike, the source gives them in different places.

System: subjects with MDD at imminent risk for suicide
Conditions: 84 mg
[1] = TEAE leading to study discontinuation, double-blind phase, N = 35
[2] = TEAE, double-blind phase, N = 35

CN[C@]1(c2ccccc2Cl)CCCCC1=O [esketamine, (S)-2-(2-chlorophenyl)-2-(methylamino)cyclohexanone]
7: Eye disorders: no. of subjects [2]
33: Total no. subjects with TEAE: no. of subjects [2]
1: Aggression: no. of subjects [1] | Agitation: no. of subjects [1] | Cardiac disorders: no. of subjects [1] | Dizziness: no. of subjects [1] | Dysgeusia: no. of subjects [1] | Dyspnea: no. of subjects [1] | Gastrointestinal disorders: no. of subjects [1] | Nausea: no. of subjects [1] | Respiratory, thoracic and mediastinal disorders: no. of subjects [1] | Ventricular extrasystoles: no. of subjects [1] | Flatulence: no. of subjects [2] | Infections and infestations: no. of subjects [2] | Nasal congestion: no. of subjects [2] | Rash: no. of subjects [2] | Renal and urinary disorders: no. of subjects [2]
20.0%: TEAE incidence: vomiting (double-blind phase)
2: Nervous system disorders: no. of subjects [1] | Psychiatric disorders: no. of subjects [1] | Acne: no. of subjects [2] | Blood pressure increased: no. of subjects [2] | Diplopia: no. of subjects [2] | Dizziness postural: no. of subjects [2] | Fatigue: no. of subjects [2] | Feeling cold: no. of subjects [2] | Hyperacusis: no. of subjects [2] | Hyperhidrosis: no. of subjects [2] | Hypoesthesia oral: no. of subjects [2] | Oropharyngeal pain: no. of subjects [2] | Paresthesia oral: no. of subjects [2] | Pharyngeal hypoesthesia: no. of subjects [2] | Suicidal ideation: no. of subjects [2] | Tinnitus: no. of subjects [2]
14.3%: Total no. subjects with TEAE leading to study discontinuation: % of subjects [1]
4: Euphoric mood: no. of subjects [2] | Somnolence: no. of subjects [2]
31.4%: TEAE incidence: dissociation (double-blind phase) | TEAE incidence: dysgeusia (double-blind phase) | TEAE incidence: headache (double-blind phase)
0: Dissociative disorder: no. of subjects [1] | Panic attack: no. of subjects [1] | Abdominal pain: no. of subjects [2] | Blepharospasm: no. of subjects [2] | Constipation: no. of subjects [2] | Epistaxis: no. of subjects [2] | Intranasal paranesthesia: no. of subjects [2] | Panic attack: no. of subjects [2] | Pollakiuria: no. of subjects [2] | Rhinalgia: no. of subjects [2] | Rhinorrhoea: no. of subjects [2] | Toothache: no. of subjects [2] | Upper respiratory tract infection: no. of subjects [2]
(14.3%): Investigations: % of subjects [2] | Skin and subcutaneous tissue disorders: % of subjects [2]
34.3%: TEAE incidence: dizziness (double-blind phase)
2.9%: Aggression: % of subjects [1] | Agitation: % of subjects [1] | Cardiac disorders: % of subjects [1] | Dizziness: % of subjects [1] | Dysgeusia: % of subjects [1] | Dyspnea: % of subjects [1] | Gastrointestinal disorders: % of subjects [1] | Nausea: % of subjects [1] | Respiratory, thoracic and mediastinal disorders: % of subjects [1] | Ventricular extrasystoles: % of subjects [1]
48.1%: subjects with at least one adverse event (follow up phase)
20: Psychiatric disorders: no. of subjects [2]
(57.1%): Psychiatric disorders: % of subjects [2]
12: Dizziness: no. of subjects [2]
37.1%: TEAE incidence: nausea (double-blind phase)
9: Ear and labyrinth disorders: no. of subjects [2] | Respiratory, thoracic and mediastinal disorders: no. of subjects [2]
(25.7%): Ear and labyrinth disorders: % of subjects [2] | Respiratory, thoracic and mediastinal disorders: % of subjects [2]
3: Agitation: no. of subjects [2] | Diarrhea: no. of subjects [2] | Dry mouth: no. of subjects [2] | Feeling abnormal: no. of subjects [2] | Hypoesthesia: no. of subjects [2] | Insomnia: no. of subjects [2] | Nasal discomfort: no. of subjects [2] | Throat irritation: no. of subjects [2]
5 subjects: subjects who discontinued the double-blind phase due to adverse events
(34.3%): Dizziness: % of subjects [2]
11: Dissociation: no. of subjects [2] | Dysgeusia: no. of subjects [2] | Headache: no. of subjects [2]
Four: subjects with a serious treatment-emergent adverse event (double-blind phase)
(28.6%): General disorders and administration site conditions: % of subjects [2]
5.7%: Nervous system disorders: % of subjects [1] | Psychiatric disorders: % of subjects [1]
13: Nausea: no. of subjects [2]
10: General disorders and administration site conditions: no. of subjects [2]
(5.7%): Acne: % of subjects [2] | Blood pressure increased: % of subjects [2] | Diplopia: % of subjects [2] | Dizziness postural: % of subjects [2] | Fatigue: % of subjects [2] | Feeling cold: % of subjects [2] | Hyperacusis: % of subjects [2] | Hyperhidrosis: % of subjects [2] | Hypoesthesia oral: % of subjects [2] | Oropharyngeal pain: % of subjects [2] | Paresthesia oral: % of subjects [2] | Pharyngeal hypoesthesia: % of subjects [2] | Suicidal ideation: % of subjects [2] | Tinnitus: % of subjects [2]
(54.3%): Gastrointestinal disorders: % of subjects [2]
94.3%: subjects with at least one TEAE (double-blind phase)
(94.3%): Total no. subjects with TEAE: % of subjects [2]
5: Withdrawn from double-blind phase: Adverse event, number of subjects (all randomized analysis set, N = 36) | Total no. subjects with TEAE leading to study discontinuation: no. of subjects [1] | Investigations: no. of subjects [2] | Skin and subcutaneous tissue disorders: no. of subjects [2]
(17.1%): Anxiety: % of subjects [2] | Paresthesia: % of subjects [2] | Sedation: % of subjects [2]
(37.1%): Nausea: % of subjects [2]
(13.9%): Withdrawn from double-blind phase: Adverse event, percent of subjects (all randomized analysis set)
(31.4%): Dissociation: % of subjects [2] | Dysgeusia: % of subjects [2] | Headache: % of subjects [2]
1 subjects: subjects with a serious adverse event (follow up phase)
6: Anxiety: no. of subjects [2] | Paresthesia: no. of subjects [2] | Sedation: no. of subjects [2]
(20.0%): Eye disorders: % of subjects [2]
(2.9%): Flatulence: % of subjects [2] | Infections and infestations: % of subjects [2] | Nasal congestion: % of subjects [2] | Rash: % of subjects [2] | Renal and urinary disorders: % of subjects [2]
25: Nervous system disorders: no. of subjects [2]
(11.4%): Euphoric mood: % of subjects [2] | Somnolence: % of subjects [2] | Vertigo: % of subjects [2]
19: Gastrointestinal disorders: no. of subjects [2]
(8.6%): Agitation: % of subjects [2] | Diarrhea: % of subjects [2] | Dry mouth: % of subjects [2] | Feeling abnormal: % of subjects [2] | Hypoesthesia: % of subjects [2] | Insomnia: % of subjects [2] | Nasal discomfort: % of subjects [2] | Throat irritation: % of subjects [2]
(71.4%): Nervous system disorders: % of subjects [2]
